Molecules are shown by their SMILES. Results filed as inconclusive are left out.

For the assay, the target named is Virion infectivity factor (Human immunodeficiency virus type 1 group M subtype B (isolate BH10)) + Virion infectivity factor (Human immunodeficiency virus type 1 group M subtype B (isolate BRU/LAI)) + Virion infectivity factor (Human immunodeficiency virus type 1 group M subtype B (isolate PCV12)) + Virion infectivity factor (Human immunodeficiency virus type 1 group M subtype B (isolate HXB2)) + DNA dC->dU-editing enzyme APOBEC-3G (Homo sapiens) (UniProt P69720+P69721+P69722+P69723+Q9HC16). Put plainly: inhibitors of Vif binding to APOBEC3G peptide, primary screen, biochemical, TR-FRET, GST-Vif 1-94, biotin-A3G peptide, dose response retest (AID 1117319).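 Further: Vif residues 1-94 fused to GST binding biotinylated APOBEC3G peptide 110-148.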 Background: In TR-FRET formats the signal depends on donor and acceptor labels being close together.
As to `Cc1cccc(-n2c(N)cc(=O)nc2SCC(=O)NC2CCCCC2)c1`, the IC50 is 93.7 µM.

Take `COC(=O)\C(C(C)=O)=C(/C=C/C=C/C=C/N(C)C)N(C)C`: the IC50 was 2.76 µM.

As for `N#Cc1c(N)sc(=S)c2c1CCCCC2`, the IC50 was 4.22 µM. For the compound `COC1=C(N)C(=O)c2nc(C)ccc2C1=O`, the IC50 was 18.3 µM.

Regarding `Cc1cccc2cc(-c3ccccc3)c(-c3ccccc3)c[n+]12`, the IC50 was 6.83 µM. Take `O=S(=O)(O)c1cc(O)c2ccc(Nc3ccccc3)cc2c1`: the half-inhibitory concentration (IC50) was 1.38 µM.

For `CC(C)NC[C@@H](O)c1ccc(O)c(O)c1`, the IC50 was 4.93 µM.

In the case of `Cc1cc2nc(C)n(CCCNC(=O)Nc3ccc(F)cc3)c2cc1C`, the IC50 is 47.6 µM. On to `O=C(/C=C/c1ccc(O)c(O)c1)c1ccc(S(=O)(=O)N2CCCCCC2)cc1`, for which the IC50 is 2.29 µM.

As to `O=C(NCc1ccco1)c1cc(-c2cccc(Cl)c2)on1`, the IC50 was 36.9 µM.

Take `CC[n+]1ccc(C)c2cc(S(=O)C(F)(F)F)ccc21` (configuration not stated): the IC50 was 8.8 µM. In the case of `CC(C)CC(NC(=O)/C(=C/c1ccco1)NC(=O)c1ccc(Br)o1)C(=O)O` (configuration not stated), the half-inhibitory concentration (IC50) was 93.5 µM. Consider `c1coc(-c2nc3nc4ccccc4n3nc2-c2ccco2)c1`, for which the IC50 was 12.3 µM.

Regarding `O=C(CSc1nnnn1-c1ccccc1)Nc1ncc2c(n1)CC(c1ccco1)CC2=O` (configuration not stated), the IC50 is 12.6 µM.

As to `O=C(O)c1ccc2c(c1)[C@@H]1C=CC[C@@H]1[C@H](c1ccccn1)N2`, the concentration for half-maximal inhibition (IC50) is 1.05 µM.

With `O=C(CCS(=O)(=O)c1ccc(Br)cc1)NC1CCCC1`, the IC50 was 20.5 µM.

As to `Cc1ccc(C)n1-c1ccc(-c2nnc3n2CCCCC3)s1`, the IC50 was 8.58 µM. The same measure for `CC1CCN(Cc2c(O)ccc3c2O/C(=C\c2ccco2)C3=O)CC1`: 3 µM; for `CNc1ccc(Br)cc(C(=O)/C=C/c2cc(OC)ccc2OC)c1=O`: 3.6 µM.

With `COc1ccc(NC(=O)CN(C)C(=O)c2cc(-c3ccco3)nc3ccccc23)cc1`, the IC50 is 4.87 µM.

Take `O=C1CC(c2ccco2)CC(O)=C1C=Nc1cc(Cl)ccc1Cl` (configuration not stated): the IC50 is 4.07 µM.

Turning to `COc1ccc(CCNC(=O)c2ccc3nc(-c4ccco4)c(-c4ccco4)nc3c2)cc1OC`, the IC50 is 0.45 µM. `COc1cc(C2C(C(=O)c3ccco3)=C(O)C(=O)N2c2cc(C)on2)cc(Br)c1O` (configuration not stated): the IC50 is 26.5 µM. Next, `COc1ccc(C(=O)n2nc(-c3ccc(Cl)cc3)nc2N)cc1OC`: 70.9 µM. As to `COc1cc2[nH]c(Cl)c([N+](=O)[O-])c2cc1OC`, the IC50 is 3.81 µM.

For `O=[n+]1c2c(n([O-])c3cc(F)c(F)cc31)CCCC2`, the IC50 is 5.33 µM. Turning to `Cc1ccc(NC(=O)c2ccc(Cl)c(N3C(=O)C=CC3=O)c2)cc1`, the IC50 was 81.2 µM. Next, `CC1=C(SCc2ccccc2)C(=O)c2ccccc2C1=O`: 58.1 µM; `CCOC(=O)C1=C(O)/C(=C/c2ccc(CNC(=O)C(=O)Nc3ccc(C)cc3)o2)N=C1C`: 33.3 µM. As for `Cc1cc(/C=C2\C(=O)NC(=O)N(Cc3ccco3)C2=O)c(C)n1-c1ccc(O)cc1`, the IC50 is 5.88 µM. On to `CCCCn1cnc2cc(NCc3ccncc3)ccc21`, for which the IC50 is 35.3 µM.

As for `CCN1C(=O)/C(=C\c2ccco2)C(C(=O)OC)=C1C`, the IC50 is 23 µM. Turning to `O=C(CN1C(=O)NC2(CCCCCCC2)C1=O)NCc1ccc2c(c1)OCO2`, the IC50 is 99.2 µM. The same measure for `Nc1nc(Sc2ccc([N+](=O)[O-])c3nonc23)c2[nH]cnc2n1`: 10.9 µM; for `CC1Cc2ccccc2N1Cc1nc2cc(C(F)(F)F)ccc2c(=O)[nH]1` (configuration not stated): 74.5 µM; for `CCCn1cnc2cc(NCc3ccccn3)ccc21`: 28.6 µM. On to `O=[N+]([O-])c1cc(CN2CCCC2)c2cccnc2c1O`, for which the IC50 is 2.48 µM.

In general, IC50 refers to the concentration at which inhibition is half-maximal.

The record behind these values is PubChem BioAssay AID1117319 (Southern Research Institute, 2015).
